Consider 4 compounds from patent US10517867B2, “Posaconazole derivative, pharmaceutical composition and use thereof” (priority 2016, dated 2019).

Read-outs that look alike come from different tables or passages of the source.

Series [1] in a line: In vitro metabolic stability in human plasma. The format is in vitro ADME. The note with it: 37° C., 10 μM compound, metabolic half-life. In outline:
(§1)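 Human or rat plasma, preincubated 5 min at 37 °C, or intestinal S9 at 37 °C, spiked from 1 mM stock; triplicates sampled at 1, 2, 5, 15 and 30 min into cold internal standard. HPLC quantitation; half-life by non-compartmental analysis.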

Series [2] can be described thus: In vitro metabolic stability in human intestine S9. The format is in vitro ADME. The conditions noted are these: 37° C., 10 μM compound, 1 mg/mL S9, NADPH regeneration system. A digest of the protocol: as §1
The nature of series [3]: In vitro metabolic stability in rat plasma. The note with it: 37° C., 10 μM compound, metabolic half-life. The class given is in vitro ADME. In outline:
as §1

A short description of series [4]: In vitro metabolic stability in rat intestine S9. The format is in vitro ADME. The note with it: 37° C., 10 μM compound, 1 mg/mL S9, NADPH regeneration system. A digest of the protocol:
as §1

A short description of series [5]: Solid stability test (stability chamber, HPLC total impurity). The class given is physicochemical. The note with it: solid, packaged, 25° C.±2° C., relative humidity 60%±2%.
Series [6] is described as follows: Pharmacokinetics after single intragastric administration to rats. The format is in vivo, SD rats. The conditions noted are these: plasma posaconazole, 2.5 mg/kg (calculated as posaconazole). As for the experimental part:
Administration amount: 2.5 mg/kg (calculated as posaconazole)
Administration volume: 10 ml/kg
Drug concentration: 0.25 mg/mL
Administration vehicle: the positive drug posaconazole group used CMC—Na, while other groups used normal saline (physiological saline)
Administration route: intragastric administration
Experimental animals: SD rats, SPF grade, weighing 180-220 g, equal amount of male and female. Rats were randomly divided into groups of 6 with 3 males and 3 females.
Experimental protocol: after oral intragastric administration, blood samples were collected at different time points to determine the concentration of posaconazole in the plasma and the pharmacokinetic parameters of posaconazole were obtained.

Series [7] relates to Candida albicans ATCC10231. As to the kind of experiment: Systemic fungal infection in mice, intragastric administration. The class given is in vivo, ICR mice. The note with it: for responders at 20 mg/kg: Candida albicans, ATCC10231, po.
Series [8] is described as follows: Determination of solubility in deionized water (HPLC, external standard). The conditions noted are these: for solubility at 30 min: 25 °C, water, thermodynamic from solid.
Series [9] relates to Candida albicans ATCC10231. Put plainly: Candida albicans vaginitis in mice, intravenous administration. The conditions noted are these: logarithm of the CFU values, mean ± SD of 20 mice; for vaginal fungal load of mice, day 5: 20 mg/kg tail vein once a day for 5 days, day 5 after infection; for vaginal fungal load of mice, day 3: 20 mg/kg tail vein once a day, day 3 after infection.
Experimental: KM mice, weighing 18-22 g, female, provided by Hubei Experimental Animal Center.
The standard strain of Candida albicans was purchased from the American Type Culture
Collection, strain number ATCC10231.
Prior to being infected with Candida albicans, animals in each group were given subcutaneous injections of 0.5 ml of estradiol benzoate (2 mg/ml) for 6 consecutive days to allow them to enter the estrus phase. Injections were continued once every 2 days until the completion of the experiment. After 6 days, 20 μl of Candida albicans solution in a concentration of 3.5×10^6 CFU/ml was injected vaginally into each mouse, causing a vaginal infection model. From the first day after infection, each group of animals was given 20 mg/kg of the corresponding drug (calculated as posaconazole) in the tail vein at an administration volume of 0.1 ml/10 g once a day for 5 consecutive days. The model group was given an equal volume of solvent (physiological saline). On the 3rd and 5th days after infection, the vagina of mice were wiped with sterile cotton swabs. The cotton swabs were soaked in 0.9 ml physiological saline. The fungal solutions were diluted to 10-fold increments to give a series of concentrations, and then 100 μl of each concentration of the bacteria solutions was taken and inoculated on Sabourand's dextrose agar solid medium containing 0.5% (W/V) chloramphenicol to observe the fungal load of Candida albicans on the vagina.

Series [10] concerns Aspergillus Fumigutus (AF) strains. Put plainly: Aspergillus fumigatus keratitis in rats, intravenous administration. The note with it: 10 mg/kg tail vein once daily for 5 days; mean ± SD of 10 rats.
In series [11] the test system is Aspergillus fumigatus AF293. Put plainly: Lung Aspergillus fumigatus infection in immunosuppressed mice, intravenous administration. The conditions noted are these: for responders at 20 mg/kg: Aspergillus fumigatus, AF293, in Mus musculus, iv; for lung fungal load: mouse lung tissue, seven days later, mean ± SD.
Series [12] has as its system Aspergillus fumigatus AF293. As to the kind of experiment: Lung Aspergillus fumigatus infection in immunosuppressed mice, intragastric administration. The conditions noted are these: mouse lung tissue, seven days later, 20 mg/kg intragastric once daily for 5 days, mean ± SD.
Experimental: Aspergillus fumigatus AF293, from the Guangdong Provincial Microbial Culture Collection Center.
ICR male mice were injected intraperitoneally with cyclophosphamide 150 mg/kg and injected subcutaneously with dexamethasone 150 mg/kg for 10 consecutive days. At the same time, the blood was taken to measure the changes of peripheral white blood cells and neutrophils, and mice with neutrophils consistently lower than 100/μl were selected as successfully immunosuppressed mice. Immediately after the last injection, the mice were anesthetized with ethyl ether, and mice were transferred from the initial state of excitement to inhibition. After their bodies were relaxed, the mice were immediately taken. Left hand was used to grasp the mouse to make it stand upright, the middle finger pressed the mouth so that it could breath only with the nose, and the ring finger gently pressed the abdomen to move the diaphragm muscle upward. 30 μl of conidia suspension (Aspergillus fumigatus AF293, 3×10^6 conidia) was sent to the nostrils of the anesthetized mice by a micropipette to allow spontaneous inhalation. After the mouse returned to normal breathing, it was returned to the cage. […] Seven days later, the mice were sacrificed and their lung tissues were taken to observe the fungal loads of Aspergillus fumigatus in the lungs of the mice.
The subject of series [13] is Candida albicans ATCC10231. Put plainly: Candida albicans vaginitis in mice, intragastric administration. The note with it: logarithm of the CFU values, mean ± SD of 20 mice; for vaginal fungal load of mice, day 15: 20 mg/kg intragastric once a day for 15 days; for vaginal fungal load of mice, day 3 / vaginal fungal load of mice, day 5 / vaginal fungal load of mice, day 7 / vaginal fungal load of mice, day 11: 20 mg/kg intragastric once a day. The format is in vivo, KM mice.

Setting [14] is: 24 h, read-out: survival rate of mice, day 1, 20 mg/kg tail vein once daily for 5 days, day 1.
Where [15] appears, read: 48 h, read-out: survival rate of mice, day 2, 20 mg/kg tail vein once daily for 5 days, day 2.
Where [16] appears, read: 72 h, read-out: survival rate of mice, day 3, 20 mg/kg tail vein once daily for 5 days, day 3.
[17] abbreviates: 96 h, read-out: survival rate of mice, day 4, 20 mg/kg tail vein once daily for 5 days, day 4.
The mark [18] stands for this setting: 120 h, read-out: survival rate of mice, day 5, 20 mg/kg tail vein once daily for 5 days, day 5.
The mark [19] stands for this setting: 144 h, read-out: survival rate of mice, day 6, 20 mg/kg tail vein once daily for 5 days, day 6.
[20] abbreviates: 168 h, read-out: survival rate of mice, day 7, 20 mg/kg tail vein once daily for 5 days, day 7.
[21] abbreviates: 20 mg/kg tail vein once daily for 5 days.

On to `CCC(O[C@@H](C)[C@H](CC)n1ncn(-c2ccc(N3CCN(c4ccc(OC[C@@H]5CO[C@@](Cn6cncn6)(c6ccc(F)cc6F)C5)cc4)CC3)cc2)c1=O)OP(=O)([O-])[O-].[Na+].[Na+]` (stereo partly drawn) [ST0093], for which the “Human plasma T1/2” value in series [1] came to 18.95 ± 2.76 min. In addition, in series [2], the “Human intestine S9 T1/2” value worked out at 61.98 ± 14.26 min. Also, the “Rat plasma T1/2” value in series [3] is listed as 15.69 ± 4.88 min. The “Rat intestine S9 T1/2” value in series [4] was determined as 57.25 ± 12.56 min. Moreover, the “Total impurity increment in 30 days” value in [5] amounted to 0.91%. Moreover, in series [6], the AUClast was 3056 ± 1265 ng·h/mL, the highest concentration (Cmax) was 125 ± 58 ng/mL and the T1/2 was 746.4 ± 128 min. For the same compound, the “survival rate of mice, day 1” value in series [7] (20 mg/kg intragastric once daily for 5 days, day 1) was determined as 70%. Moreover, the “survival rate of mice, day 2” value in [7] (20 mg/kg intragastric once daily for 5 days, day 2) was found to be 70%. Further, the “survival rate of mice, day 3” value in [7] (20 mg/kg intragastric once daily for 5 days, day 3) was 60%. The “survival rate of mice, day 4” value in [7] (20 mg/kg intragastric once daily for 5 days, day 4) was determined as 60%. Further, in series [7] (20 mg/kg intragastric once daily for 5 days, day 5), the “survival rate of mice, day 5” value came to 60%. Besides, the “survival rate of mice, day 6” value in series [7] (20 mg/kg intragastric once daily for 5 days, day 6) is on record as 60%. For the same compound, the “survival rate of mice, day 7” value in [7] (20 mg/kg intragastric once daily for 5 days, day 7) was 60%. For the same compound, the Solubility in series [8] (25±2° C., after 30 min) is given as 27.9 mg/mL.
With `CC[C@@H]([C@H](C)OP(=O)(O)O)n1ncn(-c2ccc(N3CCN(c4ccc(OC[C@@H]5CO[C@@](Cn6c[n+](C(C)OC(=O)N(C)c7ncccc7COC(=O)[C@@H](N)CCCN)cn6)(c6ccc(F)cc6F)C5)cc4)CC3)cc2)c1=O` (stereo partly drawn) [ST0009], the “vaginal fungal load of mice, day 5” value in series [9] amounted to 3.89 ± 0.54. The “vaginal fungal load of mice, day 3” value in [9] is listed as 4.05 ± 0.23. For the same compound, the “Amount of active fungi in cornea at day 7” value (“Amount of active fungi” below) in series [10] is recorded as 2.76 ± 0.45 10^3 CFU/ml. For the same compound, in series [8], the solubility at 30 min is greater than 50 mg/mL. Moreover, the responders at 20 mg/kg in series [11] (setting [14]) stood at 100%; in series [11] (setting [15]) it was 100%; in series [11] (setting [16]) it was 100%; in series [11] (setting [17]), 90%; in series [11] (setting [18]), 80%; in [11] (setting [19]) it was 80%. In series [11] (setting [20]), the responders at 20 mg/kg came to 70%. The lung fungal load was 2.03 ± 0.46 10^4 CFU/ml in series [11] (setting [21]) and 3.91 ± 0.85 10^4 CFU/ml in series [12].
`CC[C@@H]([C@H](C)OC(=O)[C@@H](N)CO)n1ncn(-c2ccc(N3CCN(c4ccc(OC[C@@H]5CO[C@@](Cn6c[n+](C(C)OC(=O)N(C)c7ncccc7COC(=O)[C@@H](N)CCCN)cn6)(c6ccc(F)cc6F)C5)cc4)CC3)cc2)c1=O` (stereo partly drawn) [ST0010]: the “vaginal fungal load of mice, day 15” value in [13] amounted to 2.75 ± 0.41. The “vaginal fungal load of mice, day 3” value in series [13] was 4.21 ± 0.32. In [13], the “vaginal fungal load of mice, day 5” value was 4.38 ± 0.41. Besides, the “vaginal fungal load of mice, day 7” value in [13] worked out at 3.97 ± 0.55. Also, in series [13], the “vaginal fungal load of mice, day 11” value is given as 3.37 ± 0.28. Moreover, the responders at 20 mg/kg is 100% in series [7] (24 h, read-out: survival rate of mice, day 1, 20 mg/kg intragastric once daily for 5 days, day 1); 100% in series [7] (48 h, read-out: survival rate of mice, day 2, 20 mg/kg intragastric once daily for 5 days, day 2); 90% in series [7] (72 h, read-out: survival rate of mice, day 3, 20 mg/kg intragastric once daily for 5 days, day 3); 70% in series [7] (96 h, read-out: survival rate of mice, day 4, 20 mg/kg intragastric once daily for 5 days, day 4); 70% in series [7] (120 h, read-out: survival rate of mice, day 5, 20 mg/kg intragastric once daily for 5 days, day 5); 60% in series [7] (144 h, read-out: survival rate of mice, day 6, 20 mg/kg intragastric once daily for 5 days, day 6). For the same compound, the responders at 20 mg/kg in [7] (168 h, read-out: survival rate of mice, day 7, 20 mg/kg intragastric once daily for 5 days, day 7) was 60%; in series [11] (setting [14]) it was 100%; in series [11] (setting [15]) it was 100%; in [11] (setting [16]), 90%; in series [11] (setting [17]) it was 80%; in [11] (setting [18]) it was 80%. Moreover, the responders at 20 mg/kg stood at 70% in series [11] (setting [19]) and 60% in [11] (setting [20]). Moreover, the “Amount of active fungi” value in series [10] is reported as 3.93 ± 0.73 10^3 CFU/ml. Besides, the solubility at 30 min in series [8] is greater than 50 mg/mL. Besides, the lung fungal load in series [11] (setting [21]) is recorded as 2.75 ± 0.37 10^4 CFU/ml; in series [12], 3.40 ± 0.63 10^4 CFU/ml.
As for `CC[C@@H]([C@H](C)O)n1ncn(-c2ccc(N3CCN(c4ccc(OC[C@@H]5CO[C@@](Cn6c[n+](C(C)OC(=O)N(C)c7ncccc7COC(=O)[C@@H](N)CCCN)cn6)(c6ccc(F)cc6F)C5)cc4)CC3)cc2)c1=O` (stereo partly drawn) [ST0007], in [13] (20 mg/kg), the “vaginal fungal load of mice, day 15” value worked out at 2.87 ± 0.24; the “vaginal fungal load of mice, day 3” value amounted to 4.35 ± 0.54; the “vaginal fungal load of mice, day 5” value came to 4.47 ± 0.65; the “vaginal fungal load of mice, day 7” value amounted to 4.23 ± 0.41. Also, in series [13] (20 mg/kg), the “vaginal fungal load of mice, day 11” value is on record as 3.81 ± 0.27. For the same compound, in series [9] (20 mg/kg), the “vaginal fungal load of mice, day 5” value came out at 3.87 ± 0.31 and the “vaginal fungal load of mice, day 3” value was found to be 4.08 ± 0.52. For the same compound, the “Amount of active fungi” value in [10] was 1.87 ± 0.35 10^3 CFU/ml. The solubility at 30 min in [8] was greater than 50 mg/mL. Further, the “survival rate of mice, day 1” value in series [11] (20 mg/kg tail vein once daily for 5 days, day 1) was 100%. Besides, the “survival rate of mice, day 2” value in series [11] (20 mg/kg tail vein once daily for 5 days, day 2) stood at 100%. For the same compound, the “survival rate of mice, day 3” value in series [11] (20 mg/kg tail vein once daily for 5 days, day 3) is given as 100%. In addition, the “survival rate of mice, day 4” value in series [11] (20 mg/kg tail vein once daily for 5 days, day 4) came to 100%. Besides, in [11] (20 mg/kg tail vein once daily for 5 days, day 5), the “survival rate of mice, day 5” value amounted to 90%. Besides, the “survival rate of mice, day 6” value in series [11] (20 mg/kg tail vein once daily for 5 days, day 6) came to 90%. The lung fungal load in series [11] (20 mg/kg tail vein once daily for 5 days, 20 mg/kg) is recorded as 1.68 ± 0.31 10^4 CFU/ml. Besides, the lung fungal load in [12] (20 mg/kg) was 4.12 ± 0.87 10^4 CFU/ml.
